Source: ChEMBL document CHEMBL1795262, “Pyrazole-based sulfonamide and sulfamides as potent inhibitors of mammalian 15-lipoxygenase” (Bioorg Med Chem Lett, 2011)
≈ marks a conversion by molar mass, not a printed value.

Tests used:
[1] = target: T1, Polyunsaturated fatty acid lipoxygenase ALOX15 (Oryctolagus cuniculus, UniProt P12530); assay: Inhibition of rabbit 15-LO using linoleic acid by standard colorimetric assay
T1 sequence (P12530 whole entry): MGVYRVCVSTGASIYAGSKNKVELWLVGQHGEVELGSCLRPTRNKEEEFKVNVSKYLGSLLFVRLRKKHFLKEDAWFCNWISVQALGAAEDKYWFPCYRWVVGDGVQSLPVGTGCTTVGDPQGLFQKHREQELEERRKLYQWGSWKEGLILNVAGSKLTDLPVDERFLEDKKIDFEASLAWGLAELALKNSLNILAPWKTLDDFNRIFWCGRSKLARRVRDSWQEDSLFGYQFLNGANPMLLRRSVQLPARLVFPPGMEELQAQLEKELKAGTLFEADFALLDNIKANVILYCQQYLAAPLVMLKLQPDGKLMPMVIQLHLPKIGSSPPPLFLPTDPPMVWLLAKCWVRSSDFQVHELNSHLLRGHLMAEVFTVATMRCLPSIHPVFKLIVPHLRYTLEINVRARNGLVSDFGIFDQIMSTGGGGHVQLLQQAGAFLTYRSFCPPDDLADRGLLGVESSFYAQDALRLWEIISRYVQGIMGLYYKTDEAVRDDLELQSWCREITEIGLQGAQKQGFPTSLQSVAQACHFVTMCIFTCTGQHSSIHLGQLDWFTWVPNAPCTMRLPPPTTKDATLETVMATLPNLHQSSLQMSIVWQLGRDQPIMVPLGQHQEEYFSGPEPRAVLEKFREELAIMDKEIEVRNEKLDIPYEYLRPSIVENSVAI

[2] = target: T1, Polyunsaturated fatty acid lipoxygenase ALOX15; assay: Inhibition of rabbit 15-LO using arachidonic acid by standard colorimetric assay
Oryctolagus cuniculus [3] = species on record: Oryctolagus cuniculus; assay: Inhibition of 15-HETE production in New Zealand White rabbit whole blood at 3 uM by RP-HPLC; assay type: functional
[4] = target: T2, Polyunsaturated fatty acid lipoxygenase ALOX12 (Homo sapiens) (UniProt P18054); assay: Inhibition of 12-LO at 10 uM
T2 sequence (whole entry): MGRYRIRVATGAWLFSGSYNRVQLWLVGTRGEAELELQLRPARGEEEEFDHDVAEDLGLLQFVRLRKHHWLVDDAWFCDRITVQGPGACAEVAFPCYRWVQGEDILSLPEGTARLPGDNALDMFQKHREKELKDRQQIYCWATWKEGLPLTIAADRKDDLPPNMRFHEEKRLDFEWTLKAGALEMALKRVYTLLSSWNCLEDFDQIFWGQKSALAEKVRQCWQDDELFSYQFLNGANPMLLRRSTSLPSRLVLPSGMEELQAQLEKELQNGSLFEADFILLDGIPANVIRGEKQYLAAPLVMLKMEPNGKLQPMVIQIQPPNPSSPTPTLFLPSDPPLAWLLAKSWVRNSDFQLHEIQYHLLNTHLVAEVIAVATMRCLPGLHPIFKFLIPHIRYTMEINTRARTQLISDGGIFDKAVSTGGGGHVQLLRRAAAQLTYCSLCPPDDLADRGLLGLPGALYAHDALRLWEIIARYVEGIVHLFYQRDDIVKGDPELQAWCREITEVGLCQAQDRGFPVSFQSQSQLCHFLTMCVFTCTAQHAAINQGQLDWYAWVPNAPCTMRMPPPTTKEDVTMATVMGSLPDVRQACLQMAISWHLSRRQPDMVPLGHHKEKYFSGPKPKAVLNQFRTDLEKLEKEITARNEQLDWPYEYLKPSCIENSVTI

Oryctolagus cuniculus [5] = species on record: Oryctolagus cuniculus; assay: Inhibition of 15-HETE production in New Zealand White rabbit whole blood at 1 uM by RP-HPLC; assay type: functional
[6] = Aqueous solubility of the compound in water at pH 6.5
[7] = target: T3, Polyunsaturated fatty acid lipoxygenase ALOX15 (Homo sapiens) (UniProt P16050); assay: Inhibition of human 15-LO expressed in CHO cells at 1 uM by cell-based assay
T3 sequence (whole entry): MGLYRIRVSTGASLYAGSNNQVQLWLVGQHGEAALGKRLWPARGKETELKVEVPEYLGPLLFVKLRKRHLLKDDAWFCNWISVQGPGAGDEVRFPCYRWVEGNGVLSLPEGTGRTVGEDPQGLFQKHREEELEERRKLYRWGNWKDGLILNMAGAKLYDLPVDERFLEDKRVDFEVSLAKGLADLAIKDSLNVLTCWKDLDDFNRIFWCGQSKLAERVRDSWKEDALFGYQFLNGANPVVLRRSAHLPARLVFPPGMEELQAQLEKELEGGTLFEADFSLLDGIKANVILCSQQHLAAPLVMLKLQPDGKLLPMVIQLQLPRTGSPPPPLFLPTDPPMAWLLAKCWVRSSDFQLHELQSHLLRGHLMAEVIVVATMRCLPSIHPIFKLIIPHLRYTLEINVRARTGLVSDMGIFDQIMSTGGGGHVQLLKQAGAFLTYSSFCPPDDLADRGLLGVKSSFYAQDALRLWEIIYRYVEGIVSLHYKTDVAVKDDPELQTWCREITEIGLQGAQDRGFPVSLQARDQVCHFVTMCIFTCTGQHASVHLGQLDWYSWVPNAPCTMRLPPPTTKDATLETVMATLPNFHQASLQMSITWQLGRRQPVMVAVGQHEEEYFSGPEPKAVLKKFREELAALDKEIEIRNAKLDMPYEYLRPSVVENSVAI

Oryctolagus cuniculus [8] = species on record: Oryctolagus cuniculus; assay: Inhibition of 15-HETE production in New Zealand White rabbit whole blood at 10 uM by RP-HPLC; assay type: functional
[9] = target: T4, Polyunsaturated fatty acid 5-lipoxygenase (Homo sapiens) (UniProt P09917); assay: Inhibition of 5-LO at 10 uM
T4 sequence (whole entry): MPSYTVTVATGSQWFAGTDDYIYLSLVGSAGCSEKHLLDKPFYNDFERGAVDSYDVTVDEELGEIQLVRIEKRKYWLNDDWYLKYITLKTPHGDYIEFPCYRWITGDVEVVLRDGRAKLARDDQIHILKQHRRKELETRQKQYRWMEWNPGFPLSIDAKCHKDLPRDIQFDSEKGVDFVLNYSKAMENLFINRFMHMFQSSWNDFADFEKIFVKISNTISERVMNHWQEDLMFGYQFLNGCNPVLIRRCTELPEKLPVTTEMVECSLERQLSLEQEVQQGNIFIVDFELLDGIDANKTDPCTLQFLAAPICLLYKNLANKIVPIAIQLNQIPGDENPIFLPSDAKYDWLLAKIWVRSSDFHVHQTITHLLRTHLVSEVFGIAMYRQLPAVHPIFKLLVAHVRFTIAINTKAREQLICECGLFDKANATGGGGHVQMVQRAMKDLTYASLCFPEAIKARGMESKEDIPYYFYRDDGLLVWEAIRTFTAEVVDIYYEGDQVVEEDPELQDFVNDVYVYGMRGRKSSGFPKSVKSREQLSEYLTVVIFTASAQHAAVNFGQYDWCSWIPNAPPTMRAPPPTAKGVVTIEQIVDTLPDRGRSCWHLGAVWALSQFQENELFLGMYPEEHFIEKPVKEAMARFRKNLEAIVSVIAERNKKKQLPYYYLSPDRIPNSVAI

[10] = target: T3, Polyunsaturated fatty acid lipoxygenase ALOX15 (Homo sapiens); assay: Inhibition of human 15-LO expressed in CHO cells at 3 uM by cell-based assay
[11] = target: T5, Polyunsaturated fatty acid 5-lipoxygenase (Homo sapiens, UniProt P09917); assay: Inhibition of 5-LO
T5 sequence (P09917 whole entry): T4 sequence (whole entry)

Row | SMILES | IC50 [1] | IC50 [2] | further results
1 | CCCCCc1ccc(S(=O)(=O)NCCc2c(-c3cccs3)n[nH]c2-c2cnccn2)cc1 | 12 nM | 65 nM | –
2 | CCCCCc1ccc(S(=O)(=O)NCCc2c(-c3ccccc3)n[nH]c2-c2ccccc2)cc1 | 35 nM | 313 nM | –
3 | CCCCCc1ccc(S(=O)(=O)NCCc2c(-c3cccs3)n[nH]c2-c2cc(C)on2)cc1 | 10 nM | 36 nM | –
4 | CCN([C@@H]1CCN(C(C)c2ccc(F)cc2)C1)S(=O)(=O)NCCc1c(-c2cccs2)n[nH]c1-c1cnccn1 (some centres undefined) | – | – | inhibition at 3 µM (Oryctolagus cuniculus [3]): 73%; inhibition [4]: 16%; inhibition at 1 µM (Oryctolagus cuniculus [5]): 45%; solubility [6]: 129 µg/mL (≈ 226 µM)
5 | CCCCCc1ccc(S(=O)(=O)NCCc2c(-c3ccc(OC)cc3)n[nH]c2C)cc1 | 3980 nM | – | –
6 | CCCCCc1ccc(S(=O)(=O)NCCc2c(-c3ccccc3)n[nH]c2-c2cccc(OC)c2)cc1 | 68 nM | 524 nM | –
7 | CCCCCc1ccc(S(=O)(=O)NCCc2c(-c3cccs3)n[nH]c2-c2cccc(OC)c2)cc1 | 9 nM | 53 nM | –
8 | CCN([C@@H]1CCN([C@H](C)c2ccccc2)C1)S(=O)(=O)NCCc1c(-c2cccs2)n[nH]c1-c1cnccn1 | 5.3 nM | 8.2 nM | inhibition at 10 µM (Oryctolagus cuniculus [8]): 55%; inhibition [4]: 38%; inhibition [9]: 68%; inhibition [10]: 61%; solubility [6]: 71 µg/mL (≈ 129 µM)
9 | CCCCCc1ccc(S(=O)(=O)NCCc2c(-c3ccccc3)n[nH]c2-c2ccc(OC)cc2)cc1 | 150 nM | 1560 nM | –
10 | CCCCCc1ccc(S(=O)(=O)NCCc2c(-c3ccccc3OC)n[nH]c2-c2ccccc2)cc1 | 1220 nM | – | –
11 | CCCCCc1ccc(S(=O)(=O)NCCc2c(-c3cccs3)n[nH]c2-c2ccccc2)cc1 | 11 nM | 28 nM | –
12 | Cc1cc(-c2[nH]nc(-c3cccs3)c2CCNS(=O)(=O)N(C)[C@@H]2CCN(Cc3ccccc3)C2)no1 | 4.2 nM | 15 nM | inhibition at 10 µM (Oryctolagus cuniculus [8]): 71%
13 | CCCCCc1ccc(S(=O)(=O)NCCc2c(-c3ccc(OC)cc3)n[nH]c2CC(C)C)cc1 | 305 nM | – | –
14 | CCCCCc1ccc(S(=O)(=O)NCCc2c(-c3ccccc3)n[nH]c2Cc2ccccc2)cc1 | 158 nM | 918 nM | –

More lines, in order of falling IC50 [1], values ahead:

Row | IC50 [1] | IC50 [2] | SMILES | further results
15 | 4 nM | 19 nM | CCCCCc1ccc(S(=O)(=O)NCCc2c(-c3cccs3)n[nH]c2-c2cccs2)cc1 | inhibition at 10 µM (Oryctolagus cuniculus [8]): 25%; inhibition [4]: 35%; solubility [6]: 0.2 µg/mL (≈ 0.412 µM)
16 | 3.6 nM | 7.5 nM | CN([C@@H]1CCN(Cc2ccccc2)C1)S(=O)(=O)NCCc1c(-c2cccs2)n[nH]c1-c1ccccc1 | inhibition at 10 µM (Oryctolagus cuniculus [8]): 44%
17 | 3 nM | 7 nM | CN([C@@H]1CCN(Cc2ccccc2)C1)S(=O)(=O)NCCc1c(-c2cccs2)n[nH]c1-c1cnccn1 | inhibition at 3 µM (Oryctolagus cuniculus [3]): 51%; inhibition [7]: 81%; solubility [6]: 79 µg/mL (≈ 151 µM)
18 | 2.7 nM | 4.1 nM | CCN([C@@H]1CCN(C(C)(C)c2ccccc2)C1)S(=O)(=O)NCCc1c(-c2cccs2)n[nH]c1-c1cnccn1 | inhibition at 10 µM (Oryctolagus cuniculus [8]): 63%; inhibition [4]: 35%; inhibition [9]: 60%; inhibition [10]: 83%; solubility [6]: 71 µg/mL (≈ 125 µM)
19 | 2 nM | 7 nM | CN([C@@H]1CCN(Cc2ccccc2)C1)S(=O)(=O)NCCc1c(-c2cccs2)n[nH]c1-c1cccs1 | inhibition at 3 µM (Oryctolagus cuniculus [3]): 40%; inhibition [7]: 79%
20 | 1.8 nM | 2.4 nM | CCN([C@@H]1CCN([C@@H](C)c2ccccc2)C1)S(=O)(=O)NCCc1c(-c2cccs2)n[nH]c1-c1cnccn1 | inhibition at 3 µM (Oryctolagus cuniculus [3]): 69%; inhibition [4]: 32%; IC50 [11]: 5500 nM; inhibition at 1 µM (Oryctolagus cuniculus [5]): 39%; inhibition [10]: 94%; solubility [6]: 76 µg/mL (≈ 138 µM)
21 | 1.5 nM | 4.3 nM | COc1cccc(-c2[nH]nc(-c3cccs3)c2CCNS(=O)(=O)N(C)[C@@H]2CCN(Cc3ccccc3)C2)c1 | inhibition at 10 µM (Oryctolagus cuniculus [8]): 43%; inhibition [7]: 51%
